# Measured values published in patent US20090068290A1, “BIFEPRUNOX DOSES FOR TREATING SCHIZOPHRENIA” (priority 2006, published 2009).
# What was measured:
# Assay type in all cases: in vivo, human
# [1] = system: adult subjects with schizophrenia; test: PANSS responder rates, Clinical Study Three
# Protocol: There were four treatment arms in this study, approximately 144 subjects per arm. […] After completing the Single-Blind Placebo Lead-in Period of at least three days, bifeprunox-treated subjects were titrated from 0.25 mg up to 20 mg/day or 30 mg/day according to a standardized titration scheme over a seven- or eight-day period, respectively. When the assigned dose was reached, subjects were maintained at that dose for the remainder of the six week treatment period. […] Subjects were hospitalized (if not already inpatients) after eligibility for study entry was verified, starting from the Screening Visit until at least 10 days after Baseline. Subjects could be hospitalized longer than 10 days if considered medically necessary by the Investigator. Rating scale assessments for efficacy and abnormal movement disorders were done weekly except for Week 5. Safety assessments were performed at Screening, during treatment and at the end of the study. Subject satisfaction with study medication was assessed at Week 6. Samples of whole blood were obtained at Weeks 2, 4, and 6 for determination of bifeprunox in plasma.
# CLINICAL STUDY THREE. A PANSS responder was defined as a subject whose PANSS total score decreased by 20% or more from Baseline to Endpoint. As exploratory analyses, responder rates were also analyzed using a 30%, 35%, 40%, and 50% definition of responder.
# [2] = system: adult subjects with schizophrenia; test: BPRS total score, Clinical Study One; settings: Risperidone 6 mg, ITT population
# Protocol: (§1) There were five treatment groups in this study. […] Study medication was administered once daily. After Baseline measurements were performed, the titration phase was begun. Bifeprunox treated subjects were titrated up to 5 mg, 10 mg or 20 mg according to a standardized titration schedule (Day 1: 0.125 mg, Day 2: 0.25 mg, Day 3: 0.5 mg, Day 4: 1.0 mg, Day 5: 2.0 mg, Day 6: 5.0 mg, Day 7: 10.0 mg, Day 8: 20 mg). When the assigned dose was reached, subjects were maintained at that dose for the remainder of the six-week treatment period.
# (§2) The change in the Positive and Negative Symptom Scale (PANSS) total score, from baseline to endpoint, was the primary outcome measure. Secondary efficacy measures included: PANSS positive, PANSS negative, PANSS general psychopathology (GPP) score, PANSS-derived Brief Psychiatric Rating Scale (BPRS) score, Clinical Global Impressions-Severity of Illness (CGI-S), CGI-Improvement (CGI-I) scores, and responder rates. Safety and tolerability evaluations included extrapyramidal symptoms (EPS), weight gain, lipid profile, and serum prolactin.
# [3] = system: adult subjects with schizophrenia; test: CGI Improvement score, Clinical Study One; settings: 6 mg
# Protocol: as §1, §2
# [4] = system: adult subjects with schizophrenia; test: PANSS general psychopathology subscale score, Clinical Study One; settings: Risperidone 6 mg, ITT population
# Protocol: as §1, §2
# [5] = system: adult subjects with schizophrenia; test: PANSS responder rate, Clinical Study Two; settings: risperidone 6 mg
# Protocol: Notable differences were also observed between the 30 mg bifeprunox group and placebo for the change from baseline to endpoint in PANSS general psychopathology subscale score, BPRS total score, BPRS psychosis cluster score, PANSS responder rate, and CGI-I responder rate. […] A CGI-I responder refers to a subject who was categorized as “very much improved” or “much improved” in the CGI Global Improvement scale at endpoint. […]
# Subjects who completed this study had the option to continue in the long-term. […] Risperidone-treated subjects were titrated from 2 mg to 6 mg daily over a three-day period and were subsequently maintained at 6 mg/day for the remainder of the treatment period. […] Blood samples were also obtained at Screening/Baseline, Week 3, and Week 6 for clinical laboratory assessments. […]
compound,measurement,setting,value
"Cc1cc2c(s1)Nc1ccccc1N=C2N1CCN(C)CC1 [Olanzapine, olanzapine, reference compound]","PANSS 20% definition response rate No, %","[1]; 15 mg, Week 6/Endpoint, LOCF",46%
same,"PANSS 20% definition response rate Yes, %","[1]; 15 mg, Week 6/Endpoint, LOCF",54%
same,20% PANSS responder rate,"[1]; olanzapine 15 mg, Endpoint LOCF",54%
"Cc1nc2n(c(=O)c1CCN1CCC(c3noc4cc(F)ccc34)CC1)CCCC2 [Risperidone, risperidone, reference compound]","Change from Baseline in BPRS Total Score, Mean (S.D.)",[2]; Endpoint LOCF,−9.2 (8.9)
same,"Change from Baseline in BPRS Total Score, Median",[2]; Endpoint LOCF,−9
same,"Change from Baseline in BPRS Total Score, Mean (S.D.)","[2]; Week 1, LOCF",−4.6 (6.5)
same,"Change from Baseline in BPRS Total Score, Median","[2]; Week 1, LOCF",−3
same,"Change from Baseline in BPRS Total Score, Mean (S.D.)","[2]; Week 2, LOCF",−7.6 (8.4)
same,"Change from Baseline in BPRS Total Score, Median","[2]; Week 2, LOCF",−7
same,"Change from Baseline in BPRS Total Score, Mean (S.D.)","[2]; Week 3, LOCF",−9.1 (8.4)
same,"Change from Baseline in BPRS Total Score, Median","[2]; Week 3, LOCF",−9
same,"Change from Baseline in BPRS Total Score, Mean (S.D.)","[2]; Week 4, LOCF",−8.6 (9.0)
same,"Change from Baseline in BPRS Total Score, Median","[2]; Week 4, LOCF",−7
same,"Actual Value of CGI Improvement Score, Mean (S.D.)",[3]; Endpoint LOCF,3.02 (1.21)
same,"Actual Value of CGI Improvement Score, Median",[3]; Endpoint LOCF,3.0
same,"Actual Value of CGI Improvement Score, Mean (S.D.)","[3]; Week 1, LOCF",3.43 (0.97)
same,"Actual Value of CGI Improvement Score, Median","[3]; Week 1, LOCF",3.0
same,"Actual Value of CGI Improvement Score, Median","[3]; Week 2, LOCF",3.0
same,"Actual Value of CGI Improvement Score, Mean (S.D.)","[3]; Week 3, LOCF",2.97 (1.05)
same,"Actual Value of CGI Improvement Score, Median","[3]; Week 3, LOCF",3.0
same,"Actual Value of CGI Improvement Score, Mean (S.D.)","[3]; Week 4, LOCF",3.05 (1.11)
same,"Actual Value of CGI Improvement Score, Median","[3]; Week 4, LOCF",3.0
same,"Change from Baseline in PANSS General Psychopathology Subscale Score, Mean (S.D.)",[4]; Endpoint LOCF,−6.8 (7.8)
same,"Change from Baseline in PANSS General Psychopathology Subscale Score, Median",[4]; Endpoint LOCF,−5
same,"Change from Baseline in PANSS General Psychopathology Subscale Score, Mean (S.D.)","[4]; Week 1, LOCF",−3.4 (5.8)
same,"Change from Baseline in PANSS General Psychopathology Subscale Score, Median","[4]; Week 1, LOCF",−3
same,"Change from Baseline in PANSS General Psychopathology Subscale Score, Mean (S.D.)","[4]; Week 2, LOCF",−5.8 (7.1)
same,"Change from Baseline in PANSS General Psychopathology Subscale Score, Median","[4]; Week 2, LOCF",−6
same,"Change from Baseline in PANSS General Psychopathology Subscale Score, Mean (S.D.)","[4]; Week 3, LOCF",−6.9 (7.3)
same,"Change from Baseline in PANSS General Psychopathology Subscale Score, Median","[4]; Week 3, LOCF",−6
same,"Change from Baseline in PANSS General Psychopathology Subscale Score, Mean (S.D.)","[4]; Week 4, LOCF",−6.3 (7.7)
same,"Change from Baseline in PANSS General Psychopathology Subscale Score, Median","[4]; Week 4, LOCF",−5
same,PANSS 20% responder rate,[5]; Endpoint LOCF,54%
same,PANSS 30% responder rate,[5]; Endpoint LOCF,31%
same,"PANSS Responder at Endpoint, 30% Definition Responder, No","[5]; LOCF, ITT",104 (69%) n (%)
same,"PANSS Responder at Endpoint, 30% Definition Responder, Yes","[5]; LOCF, ITT",47 (31%) n (%)
same,"PANSS Responder at Week 6/Endpoint, 20% Definition, No","[5]; LOCF, ITT",69 (46%) n (%)
same,"PANSS Responder at Week 6/Endpoint, 20% Definition, Yes","[5]; LOCF, ITT",78 (54%) n (%)
